Results published in patent US12390505B2, “Composition for preventing or treating obesity or diabetes, comprising acanthopanax senticosus extract and garcinia cambogia extract or compound isolated therefrom” (KOREA RESEARCH INSTITUTE OF BIOSCIENCE AND BIOTECHNOLOGY, priority 2020, dated 2025).

How the values were obtained:
Type in all cases: in vivo, mouse
[1] = Example 11 HFD mice: body fat reduction, white adipose tissue weight; conditions: oral once daily 10 weeks, 50 mg/kg
Method: (§1) After adapting 8-week-old male C57b1/6 J mice to the basic diet (AIN-76A diet) for 2 weeks, and consuming Diet Induced Obesity Diet Formulas (D12451) 60 kcal % HFD diet for 2 weeks from 10 weeks of age, and then the test drug was administered when the average body weight reached 28 g or more. The animal breeding room environment of the mouse was maintained in a constant temperature (25±2° C.), constant humidity (50±5%) and a 12-hour photoperiod (light on 07:00˜19:00) in which the light and shade were controlled in an SPF environment. […] The test drug was dispersed in 0.5% Carboxymethyl cellulose (CMC) and administered in a volume of 0.2 ml, and the drug was administered orally by force into the stomach using a metal Zonde for oral administration.
After removing retroperitoneal white adipose tissue and intestines white adipose tissue of each experimental animal, the weight of adipose tissue was calculated.
(§2) Results obtained from various experiments are recorded as mean±standard error of mean (SEM), and significance verification is determined using the student's T-test analysis method. The data were analyzed using one-way ANOVA to determine a statistically significant variance between each group for each final point measured, and statistical significance between each group was determined using the nonparametric Mann-Whitney test and Dunnett's multiple comparison test (IBM SPSS statistics version 19.0 statistic software, Inc, IBM, USA).

PPAR-gamma mRNA = assay: Example 12 HFD mice: adipose tissue PPAR-gamma mRNA analysis; conditions: adipose tissue of HFD mice, oral once daily for 10 weeks, chiisanogenin 50 mg/kg, Garcinia cambogia extract 200 mg/kg, combination 50 + 150 mg/kg, Met 50 mg/kg
Method: The test drug was dispersed in 0.5% Carboxymethyl cellulose (CMC) and administered in a volume of 0.2 ml, and the drug was administered orally by force into the stomach using a metal Zonde for oral administration. RNA was extracted from tissues using RNAsolB (Tel-Test) solution, and cDNA and real-time PCR analysis were performed using One-step SYBR Green PCR kit (AB science). From the prepared cDNA, a FAM probe of [NT] ID NO: 16) sequence was used to amplify PPAR-gamma mRNA, and a VIC probe of [NT] ID NO: 15) sequence was used to amplify GAPDH mRNA as an intra control. Real time quantitative PCR was performed using the Applied Biosystems 7500 Real-Time PCR system (Applied Biosystems, USA). Results obtained from various experiments are recorded as mean±standard error of mean (SEM), and significance verification is determined using the student's T-test analysis method. The data were analyzed using one-way ANOVA to determine a statistically significant variance between each group for each final point measured, and statistical significance between each group was determined using the nonparametric Mann-Whitney test and Dunnett's multiple comparison test (IBM SPSS statistics version 19.0 statistic software, Inc, IBM, USA).

[2] = Example 11 HFD mice: oral glucose tolerance test; conditions: oral once daily 10 weeks, 50 mg/kg
Method: After adapting 8-week-old male C57b1/6 J mice to the basic diet (AIN-76A diet) for 2 weeks, and consuming Diet Induced Obesity Diet Formulas (D12451) 60 kcal % HFD diet for 2 weeks from 10 weeks of age, and then the test drug was administered when the average body weight reached 28 g or more. The animal breeding room environment of the mouse was maintained in a constant temperature (25±2° C.), constant humidity (50±5%) and a 12-hour photoperiod (light on 07:00˜19:00) in which the light and shade were controlled in an SPF environment. […]
[…] Blood to be used for blood glucose measurement was collected from the tail vein of a mouse, and blood glucose was measured using a serum analyzer (Accutrend plus GCTL Cobas Roche, Germany).
as §2

[3] = Example 11 HFD mice: weight change, dietary efficiency and organ weight; conditions: oral once daily 10 weeks, 50 mg/kg
Method: as §1
Body weight and food intake were measured and recorded at regular times every week. Total weight gain: weight at the end of the experiment−weight at the start of the experiment (1) Food intake=[…] (2) Food efficiency ratio (FER)=[total weight gain/total food intake]×100 (3)
The data were analyzed using one-way ANOVA to determine a statistically significant variance between each group for each final point measured, and statistical significance between each group was determined using the nonparametric Mann-Whitney test and Dunnett's multiple comparison test (IBM SPSS statistics version 19.0 statistic software, Inc, IBM, USA).

[4] = Example 11 HFD mice: serum test; conditions: oral once daily 10 weeks, 50 mg/kg
Method: as §1
Blood was collected by cardiac puncture to conduct a blood biochemical test after the end of the final experiment, and then plasma was separated by centrifugation at 3,000 rpm and 4° C. for 15 minutes within 30 minutes after blood collection, and then stored at −74° C. for blood chemistry and ELISA analysis. The contents of total cholesterol, high-density lipoprotein (HDL), low-density lipoprotein (LDL), triglyceride, FFA, glucose, and LDH, which are indicators of lipid content, were measured using an automated biochemical analyzer (Hitachi-720, Hitachi Medical, Japan). IGF-1 and Creatine were diluted in coating buffer, coated on microwells, and left overnight at 4° C. After washing each well with the buffer solution three times, 100 μl of serum (10-fold dilution) was dispensed, left at room temperature for 1 hour, and then washed twice with the buffer solution. Thereafter, 100 μl of the antibody avidin-HRP conjugate was treated, left at room temperature for 1 hour, and then washed again. 100 μl of the TMB substrate was dispensed, left in the dark for 30 minutes, treated with 50 μl of the stop solution, and absorbance was measured at a wavelength of 450 nm using an ELISA reader.
as §2

CN(C)C(=N)N=C(N)N [Met, Metformin]
Inhibition Rate (intestines WAT) [1]: 46%
Inhibition Rate (retroperitoneal white adipose tissue) [1]: 12%
Intestines WAT [1]: 0.55 ± 0.05 g
Retroperitoneal white adipose tissue [1]: 0.89 ± 0.06 g
PPAR-γ mRNA Inhibition Rate (%) (PPAR-gamma mRNA): 80%
PPAR-γ mRNA, mean ± standard error (PPAR-gamma mRNA; real-time PCR vs GAPDH): 1.235 ± 0.42
Inhibition Rate (OGTT) [2]: 23%
OGTT (30 min-0 min, mg/dL) ([2]; glucose 1 g/kg): 148 ± 18.50^ mg/dL
Final weight [3]: 38.6 ± 0.93 g
Food intakes [3]: 2.24 g/day
Inhibition Rate (FER) [3]: 41%
Inhibition Rate (final weight) [3]: 43%
Inhibition Rate (weight gain) [3]: 51%
Kidney weight [3]: 0.31 ± 0.01 g
Spleen weight [3]: 0.10 ± 0.00 g
Weight gain [3]: 15.3 ± 0.82 g
Cholesterol [4]: 175.6 ± 9.03 mg/dL
Creatin [4]: 0.564 ± 0.011 mg/dL
Glucose [4]: 202.5 ± 7.98 mg/dL
HDL [4]: 88.1 ± 2.99 mg/dL
IGF-1 [4]: 1455.8 ± 138.07 pg/mL
Inhibition Rate (Cholesterol) [4]: 40%
Inhibition Rate (Creatin) [4]: 175%
Inhibition Rate (Glucose) [4]: 11%
Inhibition Rate (HDL) [4]: 7%
Inhibition Rate (IGF-1) [4]: 89%
Inhibition Rate (LDH) [4]: 122%
Inhibition Rate (LDL) [4]: 71%
Inhibition Rate (NEFA) [4]: 61%
Inhibition Rate (Triglyceride) [4]: 65%
LDH [4]: 592.0 ± 53.77 U/L
LDL [4]: 12.3 ± 0.80 mg/dL
NEFA [4]: 2.26 ± 0.10 mEq/L
Triglyceride [4]: 118.6 ± 5.90 mg/dL
